Earlier results in patent US8871750B2, “Use of aromatase inhibitors for endometrial thinning in preparation for surgical procedures on the endometrial cavity and uterus” (Wayne State University, priority 2004, dated 2014).

What was measured:
[1] = postmenopausal breast cancer treatment
endometrium [2] = conditions: small, randomized study
endometrium [3] = conditions: in vivo

| Structure (SMILES) | effect on endometrial thickness (endometrium [2]) | other results |
| --- | --- | --- |
| CCC1(c2ccc(N)cc2)CCC(=O)NC1=O (centres unmarked) [aminoglutethimide] | – | patients stopping treatment because of side effects (lethargy, rashes, nausea, fever) [1]: 8-15% |
| CC(=O)O[C@]1(C(C)=O)CC[C@H]2[C@@H]3C=C(Cl)C4=CC(=O)[C@@H]5C[C@@H]5[C@]4(C)[C@H]3CC[C@@]21C [cyproterone acetate] | significant reduction | – |
| CC(=O)O[C@]1(C(C)=O)CC[C@H]2[C@@H]3C[C@H](C)C4=CC(=O)CC[C@]4(C)[C@H]3CC[C@@]21C [medroxyprogesterone acetate] | no effect | – |
| CC#C[C@]1(O)CC[C@H]2[C@@H]3CCC4=CC(=O)CCC4=C3[C@@H](c3ccc(N(C)C)cc3)C[C@@]21C [mifepristone] | – | effect on endometrium and menstrual bleeding (endometrium [3]): marked endometrial ECM breakdown and excessive menstrual bleeding |
| C#C[C@]1(O)CC[C@H]2[C@@H]3CCC4=CC(=O)CC[C@@H]4[C@H]3CC[C@@]21C [norethisterone] | no effect | – |
